Results published in BindingDB's records for doi:10.1016/s0960-894x(01)00701-6 (Pfizer, 2001).
pKi: −log10 of the molar value.

Assay: Ability to inhibit human tissue plasminogen activator stimulator

With `Cc1ccc(N=C(N)N)nc1` [N-(5-Methyl-pyridin-2-yl)-guanidine] as the molecule, how does the pKi read?
The pKi was 3.61.
